Laboratory results reported in paper PMC9014415, “Repositioning of a Diaminothiazole Series Confirmed to Target the Cyclin-Dependent Kinase CRK12 for Use in the Treatment of African Animal Trypanosomiasis” (Journal of Medicinal Chemistry, 2022).

How the values were obtained:
L6 cells = assay: Cytotoxicity assay, rat skeletal myoblasts (L6); type: cell-based
Procedure: 1.4 Cytotoxicity assays – Rat skeletal myoblasts (L6)
The cytotoxicity of test compounds was evaluated using a rat skeletal myoblast (L6) cell line, as previously described3, but with minor modifications. Cells were grown in RPMI media supplemented with 10% (v/v) fetal calf serum. L6 cells at a seeding density of 2 x 10^4 cells/mL were incubated in microtiter plates overnight at 37 °C and 5 % CO2 until adherent. The following day, test compounds were added to the plates (3-fold serial dilutions), prior to incubation for 69 h. Following incubation, 10 µL of Resazurin (12.5 mg in 100 mL phosphate buffered saline, Aldrich) was added to each well and the plates were incubated for a further 3 h. The plates were read using a SpectraMax (Gemini XS) fluorescence reader at an excitation wavelength of 536 nm and an emission wavelength of 588 nm. EC50 values were determined using SOFTmax Pro 5.2 analysis software. All experiments were conducted as technical replicates, with at least three biological replicates. […]

T. vivax [1] = assay: Ex vivo drug sensitivity assay, T. vivax (STIB 719/ILRAD 560); type: cell-based; details: Trypanosoma vivax
Procedure: Test compounds were resuspended to a final concentration of 10 mg/mL in DMSO. […]
1.3 Ex vivo drug sensitivity assays - Trypanosoma vivax
Since T. vivax cannot be cultured axenically, BSF trypanosomes were harvested from an infected mouse with high parasitemia via cardiac puncture and used directly in ex vivo assays. EC50 values were determined against T, vivax (STIB 719/ ILRAD 560) as previously described3, with minor modifications. Briefly, cell densities were determined using a Neubauer chamber and then diluted to a seeding density of 4 x 105 trypanosomes / mL. BSF trypanosomes were cultured in HMI-9 (IMDM) media containing 20% (v/v) bovine serum. Assay plates were incubated at 37 °C with 5 % CO2, for a total of 45 h prior to addition 10 µL of Resazurin (12.5 mg in 100 mL phosphate buffered saline, Aldrich) into each well, followed by a further 3 h incubation. Absorbance was read using a SpectraMax (Gemini XS) fluorescence reader at an excitation wavelength of 536 nm and an emission wavelength of 588 nm. EC50 values were determined using SOFTmax Pro 5.2 analysis […]
software. […]

[2] = Aqueous kinetic solubility by laser nephelometry; type: physicochemical; details: MilliQ water with 2.5% DMSO, read-out: Sol (kinetic solubility); for solubility kinetic: range 250-12 µM
Procedure: 2. Drug metabolism and pharmacokinetics
The aqueous solubility of test compounds was measured using laser nephelometry. Compounds were subject to serial dilution from 10 mM to 0.5 mM in DMSO. Aliquot were then mixed with MilliQ water to obtain an aqueous dilution plate with a final concentration range of 250 – 12 µM. The final DMSO concentration in these plates was 2.5%. Triplicate aliquots were transferred to a flat-bottomed polystyrene plate which was immediately read on a NEPHELOstar nephelometer (BMG Lab Technologies). The laser scatter caused by insoluble particulates (relative nephelometry units, RNU) was plotted against compound concentration using a segmental regression fit, with the point of inflection being quoted as the compound’s aqueous solubility (µM).
Solubility of compound 1 was measured by a different method. Here, compound 1 was dissolved in DMSO to give a 10 mM solution and solubility test samples prepared by adding a volume (5 µL) of this stock solution to phosphate buffered saline, pH 7.4 (195 µL, Sigma-Aldrich). This

[3] = Bovine liver microsome stability; type: in vitro ADME; details: intrinsic clearance
Procedure: 2.2 Microsomal stability studies […]
(b) Bovine liver microsome stability. Test compounds (0.5 µM) were incubated with 0.5 mg/mL bovine liver microsomes (Xenotech LLC TM) in 50 mM potassium phosphate buffer, pH7.4 and the reaction initiated upon addition of excess NADPH (8 mg/mL in 50 mM potassium phosphate buffer, pH7.4).
Aliquots (50 µL) of the incubation mixture were taken at time zero, 3, 6, 9, 15 and 30 min then mixed with acetonitrile (100 µL) to stop the reaction. An internal standard was added to all samples, prior to centrifugation (10 min, 1,665 g, RT) to sediment precipitated protein. Reaction plates were then sealed prior to UPLCMSMS analysis using a Quattro Premier XE (Waters corporation, USA).
XLfit (IDBS, UK) was used to calculate the exponential decay and consequently the rate constant (k) from the ratio of peak area of test compound to internal standard at each timepoint. The rate of intrinsic clearance (CLi) of each test compound was then calculated using the following […]
CLi(mL/min/g liver) = k x V x microsomal protein yield
Where V (mL/mg protein) is the incubation volume/ mg protein added and microsomal protein yield is taken as 52.5 mg protein/ g of liver. Verapamil (0.5 µM) was used as a positive control to confirm acceptable assay performance. […]

T. congolense [4] = assay: In vitro drug sensitivity assay, T. congolense (IL3000); type: cell-based; details: Trypanosoma congolense; IL3000 strain
Procedure: 1.2 In vitro drug sensitivity assays - Trypanosoma congolense
EC50 values for test compounds against T. congolense (IL3000 strain) were conducted as previously described3 with minor modifications.4 Briefly, trypanosome cell densities were determined using a CASY cell counter (Schärfe) and diluted to a seeding density of 2 x 105 trypanosomes/mL. BSF trypanosomes were grown in HMI-9 (IMDM) media supplemented with 20% (v/v) bovine serum.1 Test compounds were resuspended to a final concentration of 10 mg/mL in DMSO. Assays plates were incubated at 34 °C with 5 % CO2, for a total of 69 h, prior to addition of 10 µL of Resazurin (12.5 mg in 100 mL phosphate buffered saline, Aldrich) into each well, followed by a further 3 h incubation. Absorbance was read using a SpectraMax (Gemini XS) fluorescence reader at an excitation wavelength of 536 nm and an emission wavelength of 588 nm. EC50 values were determined using SOFTmax Pro 5.2 analysis software. All experiments were conducted with technical duplicates, and at least three biological replicates. […]

T. vivax [5] = assay: NMRI mouse efficacy model, T. vivax; type: in vivo, Trypanosoma vivax; details: mice; 10 mg/kg SC once daily for 4 days
Procedure: (§1) 3. In vivo efficacy studies
(§2) The T. congolense (IL3000) and T. vivax (ILRAD V34) cell lines7, 8, both originating from Kenya, were used in the following in vivo mouse studies. For studies in cattle, either Trypanosoma congolense (savannah) KONT 2/133, 224) or T. vivax STIB 719 was used.
(§3) 3.1 Mouse efficacy studies for T. brucei brucei.
(§4) Mouse efficacy studies for T. brucei brucei were carried out as previously detailed.9 3.2 NMRI mouse efficacy studies for T. congolense and T. vivax.
(§5) Mouse models of infections were carried out using standardized protocols. Briefly, 1 mL samples of cryopreserved T. congolense, or T. vivax-infected blood harvested directly from an infected mouse, were diluted with Hanks Balanced Salt Solution plus 20 mM glucose (HBSS+G) to 5 x 10^4 trypomastigotes/mL (5 x 105 for T. vivax). Female mice (NMRI) were inoculated IP on day 0 with 0.2 mL/animal (equivalent to ~ 1 x 104 T. congolense or ~ 1 x 105 T. vivax per animal). The level of parasitaemia was inspected microscopically on day 3 using tail blood smears, counting 20 high powered fields (× 400 magnification). For untreated or treated animals whose tail smears exceeded 50 parasites/field, precise parasite levels were established using a Neubauer haemocytometer; mice with a parasite burden over 1 x 108 were promptly and humanely terminated (T. congolense only, from our experience the mice will not survive for a further 24 h). Alternatively, in the case of T. vivax-infected mice the immune system will bring the infection to a sub-lethal level (below limit of detection) […]
(§6) followed by cycles of high and low parasitaemia. Eventually mice infected with T. vivax succumb to the infection between 30 – 60 days post-infection.
(§7) Suppression of parasitaemia - mouse
(§8) On day 3 post-infection, animals were randomly allocated to groups, with 3 mice/group. Infected animals were dosed with one of the following: diaminazene diaceturate IP. – 40 mg/kg once only as a control (early-stage trypanocide used to clear the parasites in the systemic circulation and in tissues other than CNS), compound 1 (SC) at 3, 10, 30 and 50 mg free base/kg twice and once daily for 4 d or a single dose, or compound 2 (SC) at 3 and 10 mg free base /kg once daily for 4 d, once daily for 2 d or a single dose, one group of 3 mice acted as an untreated control group. The dose solutions were prepared daily, using 5% DMSO: 40% PEG400: 55% MilliQ H2O for test compounds and 10% DMSO: 90% peanut oil for standard drugs. Alternatively, compound 2 was delivered for 48 h via SC implanted ALZET osmotic pumps (6, 12, 25 and 50 mg free base/mL, vehicle: 50% DMSO […]
(§9) and 50% deionized water).
(§10) Response to treatment was determined by monitoring parasitaemia twice a week until day 21.
(§11) After day 21, the mice were checked once a week until 63 d post-treatment. Mice surviving to the end of the experiment, and with blood smears clear of parasites, were considered cured. […]
(§12) The parasites were obtained from a donor calf. This isolate is resistant to diminazene (20 mg/kg) and isometamidium (1 mg/kg) in cattle, and diminazene (7 mg/kg) and isometamidium (>1 mg/kg) in mice. Calves were parasitaemic by study day 6. Calves (n = 5) were treated with compound 1 (5 mg/kg, SC, twice 12 h apart) on study

T. congolense [6] = assay: NMRI mouse efficacy model, T. congolense; type: in vivo, Trypanosoma congolense; details: mice; 10 mg/kg SC once daily for 4 days
Procedure: as §1, §2, §3, §4, §5, §6, §7, §8, §9, §10, §11, §12

Compound	EC50 (L6 cells)	EC50 (T. vivax [1])	solubility kinetic [2]	Bovine Microsome Cli (BLM: bovine microsomal clearance) [3]	EC50 (T. congolense [4])	Efficacy at 10 mg/kg SC for 4 days, T. vivax (T. vivax [5])	Efficacy at 10 mg/kg SC for 4 days, T. congo (T. congolense [6])	solubility kinetic at 24 h ([2]; pH 7.4, range 250-12 µM)
CC(C)CS(=O)(=O)N[C@H]1CC[C@H](Nc2nc(N)c(C(=O)c3c(F)cc(CCN(C)C)cc3F)s2)CC1.Cl [Compound 7, N-(((trans)-4-((4-Amino-5-(4-(2-dimethylamino)ethyl)-2,6-difluorobenzoyl)thiazol-2-yl)amino)cyclohexyl)-2-methylpropane-1-sulfonamide Hydrochloride]	18000 nM	1 nM	> 250 µM	0.8 mL/min/g	16 nM	–	–	–
CC(C)CS(=O)(=O)N[C@H]1CC[C@H](Nc2nc(N)c(C(=O)c3c(F)cc(CN4CCN(C)CC4)cc3F)s2)CC1.Cl [Compound 3, N-((trans)-4-((4-Amino-5-(2,6-difluoro-4-((4-methylpiperazin-1-yl)methyl)benzoyl)thiazol-2-yl)amino)cyclohexyl)-2-methylpropane-1-sulfonamide Hydrochloride]	–	–	> 250 µM	<0.5 mL/min/g	–	No cure (0/3)	Partial cure (1/3)	–
CC(C)CS(=O)(=O)N[C@H]1CC[C@H](Nc2nc(N)c(C(=O)c3c(F)cc(CN)cc3F)s2)CC1.Cl [Compound 9, N-((trans)-4-((4-Amino-5-(4-(aminomethyl)-2,6-difluorobenzoyl)thiazol-2-yl)amino)cyclohexyl)-2-methylpropane-1-sulfonamide Hydrochloride]	5900 nM	0.5 nM	> 250 µM	<0.5 mL/min/g	8.3 nM	–	–	–
CC(C)CS(=O)(=O)N[C@H]1CC[C@H](Nc2nc(N)c(C(=O)c3c(F)cc(CN4CCOCC4)cc3F)s2)CC1.Cl [Compound 4, N-((trans)-4-((4-Amino-5-(2,6-difluoro-4-((4-morpholinomethyl)benzoyl)thiazol-2-yl)amino)cyclohexyl))-2-methylpropane-1-sulfonamide Hydrochloride]	–	–	–	1 mL/min/g	–	No cure (0/3)	No cure (0/3)	–
CC(C)CS(=O)(=O)N[C@H]1CC[C@H](Nc2nc(N)c(C(=O)c3c(F)cc(CN4CCC4)cc3F)s2)CC1.Cl [Compound 6, N-(((trans)-4-((4-Amino-5-(4-azetidin-1-ylmethyl)-2,6-difluorobenzoyl)thiazol-2-yl)amino)cyclohexyl)-2-methylpropane-1-sulfonamide Hydrochloride]	5300 nM	6.9 nM	> 250 µM	1.3 mL/min/g	2.5 nM	–	–	–
CC(C)CS(=O)(=O)N[C@H]1CC[C@H](Nc2nc(N)c(C(=O)c3c(F)cc(CN4CCCC4)cc3F)s2)CC1.Cl [Compound 5, N-((trans)-4-((-4-Amino-5-(2,6-difluoro-4-(pyrrolidin-1-ylmethyl)benzoyl)thiazol-2-yl)amino)cyclohexyl)-2-methyl-propane-1-sulfonamide Hydrochloride]	–	–	–	<0.5 mL/min/g	–	Full cure (3/3)	Partial cure (1/3)	220 µM
CC(C)CS(=O)(=O)N[C@H]1CC[C@H](Nc2nc(N)c(C(=O)c3c(Cl)cc(CN(C)C)cc3Cl)s2)CC1.Cl [Compound 11, N-((trans)-4-((4-Amino-5-(4-(dimethylaminomethyl)-2,6-dichlorobenzoyl)thiazol-2-yl)amino)cyclohexyl)-2-methylpropane-1-sulfonamide Hydrochloride]	4300 nM	0.05 nM	> 250 µM	7.1 mL/min/g	0.59 nM	–	–	–
